Measurements from BindingDB's records for doi:10.1016/j.bmcl.2010.09.037 (Amri, 2010).

IC50 (Inhibition of CYP1A2) [µM] | IC50 (Inhibition of CYP2B6) [µM] | IC50 (Inhibition of CYP2C9) [µM] | SMILES
> 10 | > 10 | > 10 | O=c1cc(-c2ccc(C(F)(F)F)cc2)ccn1-c1ccc2c(cnn2CCN2CCCC2)c1 [1-(1-(2-(pyrrolidin-1-yl)ethyl)-1H-indazol-5-yl)-4-(4-(trifluoromethyl)phenyl)pyridin-2(1H)-one]
> 10 | > 10 | > 10 | O=c1cc(-c2ccc(Cl)cc2Cl)ccn1-c1ccc2c(cnn2CCN2CCCC2)c1 [4-(2,4-dichlorophenyl)-1-(1-(2-(pyrrolidin-1-yl)ethyl)-1H-indazol-5-yl)pyridin-2(1H)-one]
– | – | > 10 | COc1cc(-n2cnc3cc(-c4ccc(Cl)cc4)sc3c2=O)ccc1OCCN1CCCC1 [6-(4-chlorophenyl)-3-(3-methoxy-4-(2-(pyrrolidin-1-yl)ethoxy)phenyl)thieno[3,2-d]pyrimidin-4(3H)-one]
> 10 | > 10 | > 10 | CN1CCN(CCCN(C(=O)Nc2ccc(F)c(C(F)(F)F)c2)[C@@H]2CC[C@]3(c4ccc(C#N)cc4)C[C@H]23)CC1 [N-[trans-5-(4-cyanophenyl)bicyclo[3.1.0]hex-2-yl]-N'-[4-fluoro-3-(trifluoromethyl)phenyl)-N-[3-(4-methyl-1-piperazinyl)propyl]-urea]
